Source: patent US20130035256A1, “Chimeric Polypeptides Useful in Proximal and Dynamic High-Throughput Screening Methods” (ADDEX PHARMA SA, priority 2010, published 2013)
Counter-ions that a name gives are not always drawn. Marks after values point to notes of the source that are not given here.

What was measured:
chimeric M4R (RGLG-2) = biological target: T1, chimeric M4R (RGLG-2) (Homo sapiens, UniProt P08173); experiment: BRET assay of the invention, cells co-expressing chimeric M4R (RGLG-2) and FP-Gγ9; format: cell-based; conditions: for Invention assay % stim: compound tested alone; for Invention assay % enh: in presence of EC20 value of Ach; for Invention assay % inh: in presence of EC80 of Ach; for activation of the chimeric M4R (BRET): increasing concentrations of ligand
T1 construct: ID; NOs; expressed in transfected cells
Procedure: The same cells as described for FIG. 10 A were used. […] The decrease of the signal below baseline in the PTX-treated condition confirms a constitutive activity that has been described for the M4R. […]
A typical experiment has the following sequence.
(§1) The assay of the present invention was compared with a state of the art calcium based assay. […] In calcium-based assay, a calcium flux is measured in cells co-expressing recombinant M4R and modified Gαq. In the assay in accordance with the present invention, BRET in measured in cells co-expressing a chimeric M4R according to RGLG-2 (construct and cell-line from FIG. 2C, Table 6) and FP-Gγ9 (as described in FIG. 10A). The data represent mean values and they are normalized to the maximal effect of the orthosteric agonist after the subtraction of the basal values.

M4R = biological target: T2, M4R (Homo sapiens, UniProt P08173); experiment: Calcium-based assay, calcium flux in cells co-expressing recombinant M4R and modified Gαq; format: cell-based; conditions: for Calcium-based assay % stim: compound tested alone; for Calcium-based assay % enh: in presence of EC20 value of Ach; for Calcium-based assay % inh: in presence of EC80 of Ach
T2 construct: expressed in transfected cells
T2 sequence (P08173 1-479): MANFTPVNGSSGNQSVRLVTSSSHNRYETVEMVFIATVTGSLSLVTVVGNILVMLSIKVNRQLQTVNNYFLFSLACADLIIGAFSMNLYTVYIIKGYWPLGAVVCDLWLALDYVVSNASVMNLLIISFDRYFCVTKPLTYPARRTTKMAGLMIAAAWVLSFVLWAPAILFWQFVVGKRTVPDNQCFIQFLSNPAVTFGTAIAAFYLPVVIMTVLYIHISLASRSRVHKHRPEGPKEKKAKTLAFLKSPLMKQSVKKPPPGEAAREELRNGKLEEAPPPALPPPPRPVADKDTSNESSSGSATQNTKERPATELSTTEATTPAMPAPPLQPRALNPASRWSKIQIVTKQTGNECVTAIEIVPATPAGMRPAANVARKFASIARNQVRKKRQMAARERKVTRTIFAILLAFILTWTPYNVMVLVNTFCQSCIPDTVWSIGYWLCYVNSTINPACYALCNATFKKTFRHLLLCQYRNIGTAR
Procedure: as §1

[1] = activity @ 30uM or 30 ug/ml, normalized to maximal effect of the orthosteric agonist

T1 sequence (P08173 with tags, fused parts or gaps): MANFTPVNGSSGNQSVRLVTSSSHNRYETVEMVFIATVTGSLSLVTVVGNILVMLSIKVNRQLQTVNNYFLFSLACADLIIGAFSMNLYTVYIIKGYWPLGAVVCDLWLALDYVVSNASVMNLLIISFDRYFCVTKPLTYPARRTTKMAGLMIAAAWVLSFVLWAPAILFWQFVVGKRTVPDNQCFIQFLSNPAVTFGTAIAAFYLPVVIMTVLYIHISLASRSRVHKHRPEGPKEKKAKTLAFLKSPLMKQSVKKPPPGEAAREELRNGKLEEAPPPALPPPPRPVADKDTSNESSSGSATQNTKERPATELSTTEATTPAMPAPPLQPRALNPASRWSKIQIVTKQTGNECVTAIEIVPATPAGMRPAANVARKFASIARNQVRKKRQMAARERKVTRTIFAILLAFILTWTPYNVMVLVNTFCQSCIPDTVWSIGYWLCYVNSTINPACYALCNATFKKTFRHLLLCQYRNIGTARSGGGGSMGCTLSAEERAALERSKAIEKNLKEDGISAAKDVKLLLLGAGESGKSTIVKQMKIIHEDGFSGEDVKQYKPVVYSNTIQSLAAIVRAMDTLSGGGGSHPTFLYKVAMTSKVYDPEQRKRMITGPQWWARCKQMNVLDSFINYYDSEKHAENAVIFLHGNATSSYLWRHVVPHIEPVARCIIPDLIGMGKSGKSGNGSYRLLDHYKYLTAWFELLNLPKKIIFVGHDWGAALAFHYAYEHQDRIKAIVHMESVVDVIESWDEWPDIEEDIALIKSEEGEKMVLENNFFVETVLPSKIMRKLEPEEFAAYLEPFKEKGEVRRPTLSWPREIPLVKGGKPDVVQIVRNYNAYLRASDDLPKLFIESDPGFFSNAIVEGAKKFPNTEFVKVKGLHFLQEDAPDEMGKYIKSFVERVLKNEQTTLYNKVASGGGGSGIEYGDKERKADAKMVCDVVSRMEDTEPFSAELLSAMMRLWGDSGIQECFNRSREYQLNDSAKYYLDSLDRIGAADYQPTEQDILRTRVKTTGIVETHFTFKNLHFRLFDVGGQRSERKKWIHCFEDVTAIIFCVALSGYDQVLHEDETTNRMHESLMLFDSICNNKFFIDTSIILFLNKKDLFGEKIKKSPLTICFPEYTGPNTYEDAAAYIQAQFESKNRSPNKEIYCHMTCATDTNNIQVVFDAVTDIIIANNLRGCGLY

Compound | Invention assay % stim (chimeric M4R (RGLG-2); [1]) | Invention assay % enh (chimeric M4R (RGLG-2); [1]) | Invention assay % inh (chimeric M4R (RGLG-2); [1]) | Calcium-based assay % stim (M4R; [1]) | Calcium-based assay % enh (M4R; [1]) | Calcium-based assay % inh (M4R; [1]) | activation of the chimeric M4R (BRET) (chimeric M4R (RGLG-2)) | Calcium-based assay % enh (M4R; * @ 3uM or 3 ug/ml) | Invention assay % stim (chimeric M4R (RGLG-2); * @ 3uM or 3 ug/ml) | Invention assay % enh (chimeric M4R (RGLG-2); * @ 3uM or 3 ug/ml) | Invention assay % inh (chimeric M4R (RGLG-2); * @ 3uM or 3 ug/ml) | Calcium-based assay % stim (M4R; * @ 3uM or 3 ug/ml)
AG 10 | −13.0% | −0.1% | 8.6% | 2.3% | 3.8% | 41.6% |  |  |  |  |  | 
CCOC(=O)C1=C(C)NC(=S)NC1c1cccc(O)c1 (stereo not shown) [Monastrol] | −3.0% | −0.1% | 7.0% | 4.1% | 44.7% | −16.7% |  |  |  |  |  | 
C=C[C@@]1(C)CC(=O)[C@]2(O)[C@@]3(C)[C@@H](O)CCC(C)(C)[C@@H]3[C@H](O)[C@H](OC(C)=O)[C@@]2(C)O1 [FSK] | −5.0% | −3.6% | 11.8% | 57.8% | 58.3% | −22.4% |  |  |  |  |  | 
Cc1ccc2c(c1)C(=O)C1(O)CCN(c3ccccc3)C1=N2 (racemic) [(±)-Blebbistatin] | −7.2% | −2.4% | 13.1% | 130.0% | 115.1% | −46.9% |  |  |  |  |  | 
COC(=O)C1=C(C)NC(C)=C([N+](=O)[O-])[C@@H]1c1ccccc1C(F)(F)F [(R)-(+)-Bay K 8644] | −8.2% | 4.7% | 11.4% | 26.8% | 77.8% | −66.5% |  |  |  |  |  | 
O=C1Nc2ccc(I)cc2/C1=C/c1cc(Br)c(O)c(Br)c1 [GW 5074] | −6.8% | 2.8% | 13.5% | 879.7% | 151.4% | −23.8% |  |  |  |  |  | 
CCN1C(=O)C=CC1=O [N-Ethylmaleimide] | −3.4% | 12.4% | 16.5% | 3.8% | 0.2% | 96.9% |  |  |  |  |  | 
O=C(N/N=C/c1ccc(O)c(O)c1)c1cc2ccccc2cc1O [Dynamin Inhibitor I] | −8.0% | 23.9% | −3.5% | 13.4% | 92.3% | −73.7% |  |  |  |  |  | 
CC[C@H]1/C=C/C=C/C[C@@H](C)[C@H](O)[C@@](C)(O)C(=O)[C@@H](C)[C@H](O)[C@@H](C)C(=O)[C@@H](C)[C@H](O)[C@@H](C)/C=C/C(=O)O[C@@H]2[C@H](C)[C@H](CC1)O[C@]1(CC[C@H](C)[C@H](C[C@@H](C)O)O1)[C@H]2C [Oligomycin] | 1.8% | 3.3% | 8.5% | 3.3% | 63.8% | −21.6% |  |  |  |  |  | 
Thapsigargin | −0.7% | −4.2% | 10.8% | 129.5% | 49.8% | 11.6% |  |  |  |  |  | 
CCCCCC(O)/C=C/C=O (stereo not shown) [4-Hydroxynonenal] | −14.9% | −3.5% | 29.9% | 1.4% | −7.3% | 118.9% |  |  |  |  |  | 
Cn1c2c(c(=O)n(C)c1=O)C(c1cccc(Br)c1)C1=C(N2)c2ccccc2C1=O (stereo not shown) [BPIPP] | 1.3% | 8.3% | 1.5% | 18.1% | 62.6% | −29.2% |  |  |  |  |  | 
COc1nc2sc(C(=O)NC3CC3)c(N)c2c(C)c1Cl [LY2033298] |  |  |  |  |  |  | activation |  |  |  |  | 
Nc1c[n+](N2CCOCC2)no1.[Cl-] [SIN-1 chloride] | −1.3% | 3.6% | 6.6% | 5.1% | 19.4% | 17.1% |  |  |  |  |  | 
NCCOB(c1ccccc1)c1ccccc1 [2-APB] | −4.7% | 6.3% | 10.5% | 3.7% | 4.8% | 30.3% |  |  |  |  |  | 
C[C@H](CCC(=O)O)C[C@H](C)C[C@H](C)C(=O)/C=C(\O)[C@H](C)C[C@H](C)C/C=C/[C@@H](C)[C@@H](O)[C@@H](C)[C@@H](O)C[C@@H]1CC[C@@](C)([C@H]2CC[C@@](C)([C@@H](C)O)O2)O1 [Ionomycin calcium salt] | −11.8% | −2.5% | 14.6% | 488.7% |  | 112.2% |  | 58.8* % |  |  |  | 
C[C@H]1CCC/C=C/[C@@H]2C[C@H](O)C[C@H]2[C@H](O)/C=C/C(=O)O1 [Brefeldin A] | −2.5% | −1.9% | 12.7% | 5.2% | 32.3% | −19.5% |  |  |  |  |  | 
O=C1OC2(c3ccccc31)c1ccc(O)c(O)c1Oc1c2ccc(O)c1O [Gallein] | 3.9% | 5.1% | 5.3% | 11.7% | 42.9% | −22.2% |  |  |  |  |  | 
COC(=O)C1=C(C)NC(C)=C(C(=O)OC)C1c1ccccc1[N+](=O)[O-] [Nifedipine] | −15.8% | 5.3% | 23.2% | −0.9% | 8.7% | 34.8% |  |  |  |  |  | 
CN([C@@H](Cc1ccc(OS(=O)(=O)c2cccc3cnccc23)cc1)C(=O)N1CCN(c2ccccc2)CC1)S(=O)(=O)c1cccc2cnccc12 [KN-62] |  |  |  |  |  |  |  | 39.4* % | −0.8* % | −1.2* % | 15.8* % | 8.1* %
Nc1ncnc2c1ncn2[C@@H]1O[C@H](COP(=O)(O)OP(=O)(O)OP(=O)(O)O)[C@@H](O)[C@H]1O [ATP] |  |  |  |  |  |  | lack of activation |  |  |  |  | 
COC(=O)c1c(C)[nH]c(C)c1C(=O)c1ccccc1Cc1ccccc1 [FPL 64176] | −8.4% | 7.5% | 10.0% | 48.9% | 59.7% | −66.6% |  |  |  |  |  | 
COC(=O)C1=C(C)NC(C)=C([N+](=O)[O-])[C@H]1c1ccccc1C(F)(F)F [(S)-(−)-Bay K 8644] | −8.0% | −3.6% | 14.6% | 16.1% | 59.8% | −65.0% |  |  |  |  |  | 
CN(C)CCCn1cc(C2=C(c3c[nH]c4ccccc34)C(=O)NC2=O)c2ccccc21 [GF 109203X] | 2.2% | 7.4% | 29.5% | 154.3% | 84.3% | −10.0% |  |  |  |  |  | 
